# Results as given in patent publication US8440794B2, “Peptide sequences, their branched form and use thereof for antimicrobial applications” (Universita' Degli Studi di Siena, priority 2008, dated 2013).
# Where two headings read alike, the source gives them in different places. Where a SMILES comes first, the peptide text is derived from it. Bridges are numbered along the chain shown (N, C = ends). Roman numbers before positions name the chains, in order. Where no end group is shown, it is not given here. [ ]: non-standard residue; d: D form. βAla = NCCC(=O)O
# Key:
# S. aureus 3851 = assay type: cell-based, Staphylococcus aureus
# Method: (§1) M33, […], M35 and M36 MICs were determined against strains of several bacterial species, including Gram-negative pathogens and also Staphylococcus aureus (Table 1). MICs in the micromolar range were observed against several Gram-negatives including Pseudomonas aeruginosa, Acinetobacter baumannii and most Enterobacteriaceae, with the exception of Proteus mirabilis, Serratia marcescens and Burkholderia cepacia. Activity of peptides was retained against MDR strains with various resistance mechanisms (such as extended-spectrum beta-lactamases and carbapenemases), including MDR P. aeruginosa strains from CF patients. Antimicrobial profile of M33, […] and potency were overall similar to those of polymyxin B, although M33, M34, M35 and M36 also appeared to have some activity against S. aureus (Table 1).
# [1] = test system: P. aeruginosa SC-MDr03-06; assay type: cell-based, Pseudomonas aeruginosa
# Method: as §1
# [2] = test system: P. aeruginosa SC-MDm03-02; assay type: cell-based, Pseudomonas aeruginosa
# Method: as §1
# P. aeruginosa PAO-1 = assay type: cell-based, Pseudomonas aeruginosa
# Method: as §1
# [3] = test system: P. aeruginosa SC-VMr04-05; assay type: cell-based, Pseudomonas aeruginosa
# Method: as §1
# P. aeruginosa EF-OBG6-1 = assay type: cell-based, Pseudomonas aeruginosa
# Method: as §1
# P. aeruginosa VR-143/97 = assay type: cell-based, Pseudomonas aeruginosa
# Method: as §1
# [4] = test system: P. aeruginosa SC-GMm03-05; assay type: cell-based, Pseudomonas aeruginosa
# Method: as §1
# [5] = test system: P. aeruginosa SC-CNm03-07; assay type: cell-based, Pseudomonas aeruginosa
# Method: as §1
# [6] = test system: P. aeruginosa SC-BGr12-02; assay type: cell-based, Pseudomonas aeruginosa
# Method: as §1
# [7] = test system: P. aeruginosa SC-DMr05-04; assay type: cell-based, Pseudomonas aeruginosa
# Method: as §1
# P. aeruginosa AV65 = assay type: cell-based, Pseudomonas aeruginosa
# Method: as §1
# K pneumoniae 7086042 = assay type: cell-based, Klebsiella pneumoniae
# Method: as §1
# K pneumoniae C8-27 = assay type: cell-based, Klebsiella pneumoniae
# Method: as §1
# K pneumoniae FIPP-1 = assay type: cell-based, Klebsiella pneumoniae
# Method: as §1
# E. coli W03BG0025 = assay type: cell-based, Escherichia coli
# Method: as §1
# [8] = test system: Enterobacter cloacae W03AN0041; assay type: cell-based
# Method: as §1
# [9] = test system: Burkholderia cepacia ORB-99; assay type: cell-based
# Method: as §1
# [10] = test system: Serratia marcescens W03BG0003; assay type: cell-based
# Method: as §1
# [11] = test system: Staphylococcus aureus ATCC 29213; assay type: cell-based
# Method: as §1
# [12] = test system: Proteus mirabilis W03VA1017; assay type: cell-based
# Method: as §1
# [13] = test system: Pseudomonas aeruginosa ATCC 27853; assay type: cell-based
# Method: as §1
# [14] = test system: Acinetobacter baumannii RUH 134; assay type: cell-based
# Method: as §1
# [15] = test system: Klebsiella pneumoniae ATCC 13833; assay type: cell-based
# Method: as §1
# [16] = test system: Enterobacer aerogenes W03BG0067; assay type: cell-based
# Method: as §1
# [17] = test system: Escherichia coli ATCC 25922; assay type: cell-based
# Method: as §1
# A. baumannii MR157 = assay type: cell-based, Acinetobacter baumannii
# Method: as §1
# A. baumannii RUH 875 = assay type: cell-based, Acinetobacter baumannii
# Method: as §1
# human erythrocytes = assay type: cell-based
# Method: FIG. 2. Percentage of haemolysis provoked by tetra-branched M33 peptide incubated 3 or 24 hours with human red blood cells.
# Haemolysis of fresh human erythrocytes was determined using the method of Parpart, summarized as follows. A calibration curve was constructed by suspending fresh human erythrocytes in phosphate buffer (pH 7.4, 110 mM sodium phosphate) with various concentrations of NaCl and incubated for 30 min at room temperature. Samples were centrifuged at 500×g for 5 minutes, and haemoglobin release was monitored by measuring the absorbance of supernatants at 540 nm. The absorbance obtained with 0.1% NaCl corresponded to 100% lysis and that with 1% NaCl, to 0% lysis. Peptides dissolved in PBS were added to human erythrocyte solution at several concentrations. The resulting suspension was incubated separately at 37° C. for 2 h and 24 h. Release of hemoglobin was monitored by measuring the absorbance of the suspernatant at 540 nm after centrifuging and haemolysis percentage was calculated using the calibration curve.
# E. coli TG1 = assay: Antibacterial activity against E. coli TG1 cells (CFU count after 75 min incubation, FIG. 1A); assay type: cell-based; conditions: 75 minutes at 37° C., CFU counted
# From the text: FIG. 1. A, Antibacterial activity against E. coli TG1 cells. Comparison of the following tetra-branched peptides: M6 batch 1 synthesis (triangles), M6 batch 2 synthesis (squares), M6 batch 3 synthesis (white circles), which contain a mixture of Gln and pyroGlu (in unknown percentages) as first amino-acid, […] (asterisks), where the first amino-acid is 100% pyroGlu, and M33 (black circles), in which the first Gln was deleted. […] SD derived by means of three different experiments. Many different syntheses of M33 (and also of M34, M35 and M36, here not shown) gave perfectly overlapping results without any wavering outcome. B, Mass spectrometry analysis of tetra-branched peptide M6 crude mixture. Calculated molecular mass of M6 was 5195 Da. Two main peaks are present, one at 5197 Da corresponding to unmodified M6 and one at 5179 Da that corresponds to the secondary product with one pyroGlu in first position in the place of one of the four Gln. C, Mass spectrometry analysis of tetrabranched peptide M33 after 24 hours of incubation in serum. The peptide appears as a single peak at the expected molecular mass (4683 Da).
# A single colony of E. coli TG1 strain was cultured in 2×TY medium to 0.2 OD^600. […] The following day colonies (CFU/ml) grown on plates were counted.
compound,measurement,setting,value
"CC[C@H](C)[C@H](NC(=O)[C@H](CCCNC(=N)N)NC(=O)[C@@H](N)CCCCN)C(=O)N[C@@H](CCCNC(=N)N)C(=O)N[C@H](C(=O)N[C@@H](CCCNC(=N)N)C(=O)N[C@@H](CC(C)C)C(=O)N[C@@H](CO)C(=O)N[C@@H](C)C(=O)NCCCC[C@H](NC(=O)[C@H](C)NC(=O)[C@H](CO)NC(=O)[C@H](CC(C)C)NC(=O)[C@H](CCCNC(=N)N)NC(=O)[C@@H](NC(=O)[C@H](CCCNC(=N)N)NC(=O)[C@@H](NC(=O)[C@H](CCCNC(=N)N)NC(=O)[C@@H](N)CCCCN)[C@@H](C)CC)C(C)C)C(=O)NCCCC[C@H](NC(=O)[C@H](CCCCNC(=O)[C@H](C)NC(=O)[C@H](CO)NC(=O)[C@H](CC(C)C)NC(=O)[C@H](CCCNC(=N)N)NC(=O)[C@@H](NC(=O)[C@H](CCCNC(=N)N)NC(=O)[C@@H](NC(=O)[C@H](CCCNC(=N)N)NC(=O)[C@@H](N)CCCCN)[C@@H](C)CC)C(C)C)NC(=O)[C@H](C)NC(=O)[C@H](CO)NC(=O)[C@H](CC(C)C)NC(=O)[C@H](CCCNC(=N)N)NC(=O)[C@@H](NC(=O)[C@H](CCCNC(=N)N)NC(=O)[C@@H](NC(=O)[C@H](CCCNC(=N)N)NC(=O)[C@@H](N)CCCCN)[C@@H](C)CC)C(C)C)C(=O)NCCC(=O)O)C(C)C [M35, KRIRVRLSA] (I: H-KRIRVRLSAKK[βAla]-OH / II: H-KRIRVRLSAK / III: H-KRIRVRLSA / IV: H-KRIRVRLSA; amide I:10-IV:C, I:11-II:C, II:10-III:C; N-terminus assumed)",MIC,"S. aureus 3851; 3851, 24 h",6 µM
same,MIC,"[1]; SC-MDr03-06, 24 h",3 µM
same,MIC,"[2]; SC-MDm03-02, 24 h",3 µM
same,MIC,"P. aeruginosa PAO-1; PAO-1, 24 h",1.5 µM
same,MIC,"[3]; SC-VMr04-05, 24 h",3 µM
same,MIC,"P. aeruginosa EF-OBG6-1; EF-OBG6-1, 24 h",1.5 µM
same,MIC,"P. aeruginosa VR-143/97; VR-143/97, 24 h",1.5 µM
same,MIC,"[4]; SC-GMm03-05, 24 h",1.5 µM
same,MIC,"[5]; SC-CNm03-07, 24 h",1.5 µM
same,MIC,"[6]; SC-BGr12-02, 24 h",1.5 µM
same,MIC,"[7]; SC-DMr05-04, 24 h",1.5 µM
same,MIC,"P. aeruginosa AV65; AV65, 24 h",1.5 µM
same,MIC,"K pneumoniae 7086042; 7086042, 24 h",3 µM
same,MIC,"K pneumoniae C8-27; C8-27, 24 h",1.5 µM
same,MIC,"K pneumoniae FIPP-1; FIPP-1, 24 h",3 µM
same,MIC,"E. coli W03BG0025; W03BG0025, 24 h",1.5 µM
same,MIC,"[8]; W03AN0041, 24 h",1.5 µM
same,MIC,[9]; 24 h,>24 µM
same,MIC,"[10]; W03BG0003, 24 h",>24 µM
same,MIC,"[11]; ATCC 29213, 24 h",6 µM
same,MIC,"[12]; W03VA1017, 24 h",>24 µM
same,MIC,"[13]; ATCC 27853, 24 h",1.5 µM
same,MIC,"[14]; RUH 134, 24 h",1.5 µM
same,MIC,"[15]; ATCC 13833, 24 h",3 µM
same,MIC,[16]; 24 h,1.5 µM
same,MIC,"[17]; ATCC 25922, 24 h",1.5 µM
same,MIC,"A. baumannii MR157; MR157, 24 h",3 µM
same,MIC,"A. baumannii RUH 875; RUH 875, 24 h",3 µM
same,Haemolysis of human red blood cells,human erythrocytes,practically negligible haemolysis grade
Polymyxin B [reference compound],MIC,"S. aureus 3851; S. aureus 3851, MR VANi",96 µM
same,MIC,"[1]; P. aeruginosa SC-MDr03-06, CF clinical isolate, FQr AGr ESCr NEMr",1.5 µM
same,MIC,"[2]; P. aeruginosa SC-MDm03-02, CF clinical isolate, mucoid, FQr AGr ESCr NEMr",1.5 µM
same,MIC,"P. aeruginosa PAO-1; P. aeruginosa PAO-1, reference strain, wild type",1.5 µM
same,MIC,"[3]; P. aeruginosa SC-VMr04-05, CF clinical isolate, FQr AGr ESCr NEMr",1.5 µM
same,MIC,"P. aeruginosa EF-OBG6-1; P. aeruginosa EF-OBG6-1, CF clinical isolate, FQr AGr ESCr NEMr (MBL/IMP-13)",0.7 µM
same,MIC,"P. aeruginosa VR-143/97; P. aeruginosa VR-143/97, FQr AGr ESCr NEMr (MBL/VIM-1)",1.5 µM
same,MIC,"[4]; P. aeruginosa SC-GMm03-05, CF clinical isolate, mucoid, FQr AGr ESCr NEMr",1.5 µM
same,MIC,"[5]; P. aeruginosa SC-CNm03-07, CF clinical isolate, mucoid, FQr AGr ESCr NEMr",0.7 µM
same,MIC,"[6]; P. aeruginosa SC-BGr12-02, CF clinical isolate, FQr AGr ESCr NEMr",1.5 µM
same,MIC,"[7]; P. aeruginosa SC-DMr05-04, CF clinical isolate, FQr AGr ESCr NEMr",1.5 µM
same,MIC,"P. aeruginosa AV65; P. aeruginosa AV65, FQr AGr ESCr NEMr (MBL/IMP-13)",1.5 µM
same,MIC,"K pneumoniae 7086042; K pneumoniae 7086042, FQr AGr ESCr NEMr (MBL/VIM-1)",1.5 µM
same,MIC,"K pneumoniae C8-27; K pneumoniae C8-27, FQr AGr ESCr ETPr (ESBL/CTX-M-15)",0.7 µM
same,MIC,"K pneumoniae FIPP-1; K pneumoniae FIPP-1, FQr AGr ESCr NEMr (MBL/KPC-3)",1.5 µM
same,MIC,"E. coli W03BG0025; E. coli W03BG0025, FQr AGr ESCr (ESBL/CTX-M-15)",0.7 µM
same,MIC,"[8]; Enterobacter cloacae W03AN0041, ESCr (ESBL/SHV-12)",0.7 µM
same,MIC,"[9]; Burkholderia cepacia ORB-99, CF clinical isolate, wild type",>96 µM
same,MIC,"[10]; Serratia marcescens W03BG0003, FQr AGr ESCr (ESBL/SHV-12)",>96 µM
same,MIC,"[11]; Staphylococcus aureus ATCC 29213, reference strain, PENr",96 µM
same,MIC,"[12]; Proteus mirabilis W03VA1017, FQr ESCr (AmpC/CMY-16)",>96 µM
same,MIC,"[13]; Pseudomonas aeruginosa ATCC 27853, reference strain, wild type",1.5 µM
same,MIC,"[14]; Acinetobacter baumannii RUH 134, reference strain, European clone II",1.5 µM
same,MIC,"[15]; Klebsiella pneumoniae ATCC 13833, reference strain, wild type",0.7 µM
same,MIC,"[16]; Enterobacer aerogenes W03BG0067, AGr ESCr (ESBL/SHV-5)",0.7 µM
same,MIC,"[17]; Escherichia coli ATCC 25922, reference strain, wild type",0.7 µM
same,MIC,"A. baumannii MR157; A. baumannii MR157, FQr AGr ESCr NEMr (OXA/OXA-58)",1.5 µM
same,MIC,"A. baumannii RUH 875; A. baumannii RUH 875, reference strain, European clone I",1.5 µM
"QKKIRVRLSA (also: tetra-branched MAP) [M6, previously reported tetra-branched MAP peptide with Gln as first amino-terminal residue, reference compound]","Antibacterial activity against E. coli TG1 cells (comparison of tetra-branched peptides, FIG. 1A)",E. coli TG1,intermediate antimicrobial activities
